Test results reported in US5262537A, “Derivatives of 4,5,6,7-tetrahydroimidazo-[4,5-c]pyridinyl-6-carboxylic acid” (priority 1993, dated 1993).
Structures can show the parent of a compound that is named as a salt. Where two headings read alike, the source gives them in different places.

What was measured:
Ferret = assay: Cisplatin Ferret Assay--Antiemetic Screening; assay type: in vivo, Male ferrets; details: Mustela putorius, iv, 4 h; for inhibition in vivo at 0.1 mg/kg: read-out: Ferret Cisplatin Test % Prot, 0.1 mg/Kg; for ED50: i.v., emetic episodes over four hours, read-out: Ferret Cisplatin Test ED50
Method: Male ferrets (castrated, descented, 1-2 kg) were purchased from Triple F Farms, Syre, Pa. Ferrets were housed four in a cage with a 12 hour light cycle and were fed ad libitum with Ralston Purina Cat Chow. Each ferret was used unfasted for the assay after a minimum of a 24 hour acclimation time in animal facility.
Ferret Preparation. Each ferret was anesthetized with 5% isoflurane-O2in a 20 gallon aquarium for 2 to 5 minutes. After removal of the anesthetic gas, the animals were removed and weighed. Injections were made into the dorsal front paw vein using a tourniquet and a 1 ml tuberculin syringe with a 25 g needle while the animal was maintained under anesthesia using a small nose cone delivering 5% isoflurane-O2. Cisplatin was injected using a 3 ml or 5 ml syringe in the opposite paw from the study compound or saline. Recovery time from anaesthesia was 5 to 8 minutes.
Drug Preparation. Cisplatin bulk powder was weighed and dissolved in normal saline at 75° C. to provide a 5 mg/ml solution (90 mg was placed in a scintillation vial and qs with 18 ml saline). The solution was stirred and maintained at 40° C. until ready for use. The study drug was weighed and dissolved in normal saline at room temperature to provide a 1 mg/ml solution (10 mg was placed in a scintillation vial and qs with 10 ml saline). Suspensions were heated to 40° C. to bring the study compound into solution. Compounds not soluble under these conditions were not assayed.
Assay. Cisplatin was injected i.v. at 10 mg/kg into twelve anesthetized ferrets daily at time zero. Normal saline (0.5 ml) or the study compound (0.1 or 1.0 mg/kg) was injected 30 minutes later in groups of three anesthetized ferrets. Order of treatment and treatment dose was selected at random, with the remaining treatment dose assayed in the next experiment.
Experimental Observations and Data Collection. Ferrets were viewed individually. The time and number of emetic episodes were recorded for four hours. Zero time was equivalent to the time of cisplatin injection. […] Retches were recorded but not counted. The total number of episodes for each of the four groups of three ferrets (+/-S.E.) was averaged and the effect of treatment (% protection) was calculated as the percent reduction of emetic episodes compared to controls. [formula]
Percent protection values were determined from experimental controls. Experimental controls were those obtained from the day of the experiment. Onset times of the first episode were averaged and recorded for each group. Prodromal signs (lip licking, slit eyes, head shaking, salivation, scratching, clawing, walking backward, sedation, urination, and defecation) were also averaged and recorded.

5-HT3 = molecular target: T1, 5-HT3 (Rattus norvegicus, UniProt P35563); assay: biochemical; assay type: binding, Male Sprague-Dawley rats
T1 sequence (P35563 24-483): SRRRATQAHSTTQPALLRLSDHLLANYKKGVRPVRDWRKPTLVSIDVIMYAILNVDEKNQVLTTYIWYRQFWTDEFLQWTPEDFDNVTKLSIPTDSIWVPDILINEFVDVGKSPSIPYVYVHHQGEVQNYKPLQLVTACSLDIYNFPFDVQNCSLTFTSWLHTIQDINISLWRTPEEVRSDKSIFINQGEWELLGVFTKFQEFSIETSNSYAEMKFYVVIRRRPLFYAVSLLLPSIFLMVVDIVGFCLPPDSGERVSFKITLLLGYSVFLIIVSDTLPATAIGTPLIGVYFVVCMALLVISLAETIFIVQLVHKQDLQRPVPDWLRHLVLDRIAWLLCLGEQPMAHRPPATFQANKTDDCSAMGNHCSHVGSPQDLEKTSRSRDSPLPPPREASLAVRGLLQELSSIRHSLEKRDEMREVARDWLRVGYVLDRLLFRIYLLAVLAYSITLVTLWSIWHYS
Method: A number of compounds in accordance with the present invention were tested for their 5-HT3 and D2 binding affinities in accord with the following procedures.
Male Sprague-Dawley rats (175-220 g) were sacrificed by decapitation and their brains removed rapidly. The entorhinal cortex was used for the 5-HT3 (5-hydroxytryptamine) binding assay and the remainder of the brain, minus the brain stem and cerebellum, was used for the D2 (dopamine) binding assay. The entorhinal cortex was harvested and prepared on the day of the assay.
The entorhinal cortex was homogenized in 20 volumes of cold 50 mM HEPES buffer, pH 7.4, while the remaining brain tissue was homogenized in 20 volumes of cold 50 mM Tris, pH 7.4. The homogenates were centrifuged at 4800×g for 15 minutes at 5° C. and the supernatants decanted. Pellets were resuspended in the original volume of HEPES or Tris. Homogenates were centrifuged and the supernatants decanted. Pellets were resuspended in the same volume of HEPES or Tris and incubated at 37° C. for 45 minutes to remove endogenous neurotransmitters. Homogenates were centrifuged and the supernatants were decanted. Pellets for D2 assays were stored at -50° C. until the day of the assay. The pellets for the 5-HT3 assay (entorhinal cortex) were resuspended in the appropriate amount of HEPES buffer and used promptly. Modifications of published assays for [^3 H]GR65630 (Kilpatrick et al., Nature: 330, 746-748 (1987)) and [^3 H]raclopride (Dewar et al., J. Pharmacol. Exp. Ther.: 250, 696-706 (1989) and Lidow et al., Proc. Natl. Acad. Sci. USA: 86, 6412-6416 (1989)) were used for the 5-HT3 and D2 binding assays, respectively.
Briefly, 0.25 ml of homogenate was incubated with either 0.2 nM of [^3 H]GR65630 or 1.0 nM of [^3 H]raclopride in a final volume of 0.5 ml. D2 binding also requires sodium chloride and potassium chloride (120 mM and 5 mM, final concentration, respectively). In the 5-HT3 assay, non-specific binding was defined in the presence of 100 uM quipazine. In the D2 assay, non-specific binding was defined in the presence of 100 uM of (+/-) sulpiride. Both assays were incubated at room temperature; [^3 H]GR65630 for 40 minutes and [^3 H]raclopride for 60 minutes. Test compounds (0.1 ml) were added to incubates where appropriate. Bound ligand was separated from free ligand by filtration and quantified using liquid scintillation spectrophotometry. IC50 values were calculate for all test compounds.

[1] = 0.1 mg/kg i.v., 30 minutes after cisplatin 10 mg/kg i.v., percent reduction of emetic episodes vs controls, four hours
[2] = 30 minutes after cisplatin 10 mg/kg i.v.
[3] = 0.2 nM [3H]GR65630, rat entorhinal cortex, 40 minutes, room temperature, read-out: 5-HT3 IC50

CN1Cc2nc[nH]c2C[C@H]1C(=O)Nc1ccccc1Cl [Compd 37]
inhibition in vivo at 0.1 mg/kg (Ferret; [1]): 42%
ED50 (Ferret; [2]): 0.065 mg/kg
IC50 (5-HT3; [3]): 0.0267 µM

CN1Cc2nc[nH]c2C[C@H]1C(=O)c1ccccc1 [Compd 38]
inhibition in vivo at 0.1 mg/kg (Ferret): 30%
IC50 (5-HT3): 0.0485 µM

CC(=O)c1ccccc1NC(=O)[C@@H]1Cc2[nH]cnc2CN1C [Compd 39, (S)-6-(2-acetylphenylaminocarbonyl)-5-methyl-4,5,6,7-tetrahydroimidazo[4,5-c]pyridine]
inhibition in vivo at 0.1 mg/kg (Ferret; [1]): 65%
ED50 (Ferret; [2]): 0.045 mg/kg
IC50 (5-HT3; [3]): 0.00418 µM

CN1Cc2nc[nH]c2C[C@H]1C(=O)Nc1cc(O)ccc1O [Compd 40, (S)-6-(2,5-dihydroxyphenylaminocarbonyl)-5-methyl-4,5,6,7-tetrahydroimidazo[4,5-c]pyridine dihydrobromide]
inhibition in vivo at 0.1 mg/kg (Ferret; [1]): 0%
IC50 (5-HT3; [3]): 0.0459 µM

COc1ccc2oc(C(=O)[C@@H]3Cc4[nH]cnc4CN3C)cc2c1 [Compd 41]
inhibition in vivo at 0.1 mg/kg (Ferret): 9%
IC50 (5-HT3; [3]): 12.9 µM

CN1Cc2nc[nH]c2C[C@H]1C(=O)Nc1ccccc1N [Compd 42]
inhibition in vivo at 0.1 mg/kg (Ferret; [1]): 39%
ED50 (Ferret; [2]): 0.23 mg/kg
IC50 (5-HT3; [3]): 3.49 µM

COc1ccccc1C(=O)[C@@H]1Cc2[nH]cnc2CN1C [Compd 43]
inhibition in vivo at 0.1 mg/kg (Ferret): 41%
IC50 (5-HT3): 2.38 µM

CN1Cc2nc[nH]c2C[C@H]1C(=O)Nc1ccccc1Oc1cccc(C(F)(F)F)c1 [Compd 44]
inhibition in vivo at 0.1 mg/kg (Ferret; [1]): 1%
ED50 (Ferret; [2]): 0.26 mg/kg
IC50 (5-HT3; [3]): 0.00952 µM

CN1Cc2nc[nH]c2C[C@H]1C(=O)Nc1ccccc1Oc1cccc(F)c1 [Compd 45]
inhibition in vivo at 0.1 mg/kg (Ferret; [1]): 67%
ED50 (Ferret; [2]): 0.042 mg/kg
IC50 (5-HT3; [3]): 0.00709 µM

CC(=O)c1ccccc1NC(=O)[C@@H]1Cc2[nH]cnc2C(C)(C)N1 [Compd 48]
inhibition in vivo at 0.1 mg/kg (Ferret; [1]): 100%
ED50 (Ferret; [2]): 0.0098 mg/kg
IC50 (5-HT3; [3]): 0.158 µM

CC1(C)N[C@H](C(=O)Nc2ccccc2Oc2ccccc2)Cc2[nH]cnc21 [Compd 49, (S)-6-(2-phenoxy-phenylaminocarbonyl)-4,4-dimethyl-4,5,6,7-tetrahydroimidazo[4,5-c]pyridine]
inhibition in vivo at 0.1 mg/kg (Ferret; [1]): 76%
ED50 (Ferret; [2]): 0.022 mg/kg
IC50 (5-HT3; [3]): 0.00855 µM

CCN(CC)CCNC(=O)c1cc(Cl)c(N)cc1OC [Metaclopramide, reference compound]
inhibition in vivo at 0.1 mg/kg (Ferret; [1]): 17%
ED50 (Ferret; [2]): 4.08 mg/kg
IC50 (5-HT3): 0.514 µM
